Where two headings read alike, the source gives them in different places.

One assay has as its target T1, CB1 receptor (Rattus norvegicus, UniProt P20272).
T1 construct: displace [^3H]; from tissue; host or cells: rat cerebellum membranes
Description: Ligand-receptor assay for the CB1 receptor, displacement of [3H] SR141716. The class given is binding. As to conditions: rat cerebellum membranes. The procedure: The ligand-receptor assay for the CB1 receptor evaluates the capacity of the synthesized compounds to displace [^3H]
The ligand-receptor assay was performed using the CB1 labeled antagonist, [^3H] […] 450 μL of pH-regulating solution A (50 mM Tris pH=7.4 with 0.5% bovine serum albumin (BSA)), 100-200 μg rat cerebellum membranes, the diluted product and the labeled CB1 antagonist, [^3H] […] After incubating for […] at 37° C., the reaction was stopped with 1 mL of pH-regulating solution A. The mixture was centrifuged at 5000 rpm for 5 minutes. The supernatant was discarded and the pellet washed with another 1 mL of pH-regulating solution A, centrifuged and the supernatant one again was discarded. Scintillation liquid was added and the samples were read in a beta particle counter (Liquid Scintillation Analyzer, Tri-Carb 2100 TR, PACKARD, Packard Bioscience Company).
In general terms: Displacement assays read how much labelled ligand stays bound in the presence of the test substance.

The next assay deals with male Wistar rats. Description: Acute intake experiment in animals fasting for 24 hours. The class given is in vivo, rat. As to conditions: rats fasted 24 hours, food given 30 min after injection, n=8. On the procedure: All the in vivo experiments were performed using male Wistar rats weighing 200-500 g. The animals were housed in individual cages in a room with controlled temperature (23° C.) and humidity (50%) with a 12/12 light and dark cycle. The animals had access to water and food ad libitum except in specific experimental methods. The animals were manipulated once a day for this two days before the experimental sessions. All the products were dissolved in a mixture of DMSO (5%), Tween 60 (5%)/saline (90%). The in vivo experiments included the analysis of intake and effects on general behavior. None of the assayed compounds altered the general behavior of the animal but some reduced the animal's appetite (FIGS. 1 to 8).
The acute effect on the intake of all the products was tested in animals fasting for 24 hours.
Thirty minutes after injection, previously weighed food was put in the cage. The food was weighed 30, 60, 120 and 240 minutes after starting the test. All the intake experiments were performed with groups of 8 animals (n=8) (FIGS. 1 to 8). […] The compounds (Z)-1-(2-phenylethoxy)octadec-9-ene (Example 3, FIG. 1) and (Z)-1-(2-(3,4-methylenedioxyphenyl)ethoxy)octadec-9-ene (Example 2, FIG. 3) reduced intake by about 25%. All the compounds had long-term effects, the reduction of intake being significant 4 hours after administration.

A further assay concerns LDL. Description: Conjugated dienes experiment, copper-induced LDL oxidation. The format is biochemical, human. As to conditions: compounds at 0.5, 1 and 3 μM. The procedure:
Blood from healthy, fasting volunteers is collected in tubes containing 1 g/L of EDTA. The plasma is prepared by centrifugation at 1,000 g and 4° C. for 15 minutes. LDL is isolated by sequential ultracentrifugation. Native LDL is dialyzed by size exclusion chromatography in Sephadex G25 columns (Pharmacia, Uppsala, Sweden), with 2.7 ml of 0.01 mol pH 7.4 phosphate buffer (PB) at 4° C. The apolipoprotein B100 content is determined by immunoturbidimetry (ABX Diagnostics—Montpellier, France).
Dialyzed LDL (final concentration of 0.06 g of Apo-B/L) in PB at a final volume of 150 μL was incubated in a […] ELISA plate (flat bottom, transparent to UV, Corning®) with 10 μL of methanol in the presence or absence (control) of the compounds object of the study. 10 μL of a 100 μM copper sulfate solution (final concentration of […]) are then added. To minimize evaporation during prolonged incubation periods, 10 μL of mineral oil (Sigma-Aldrich) are added on the surface of the reaction mixture. […] The absorbance at 234 nm is continuously monitored every 15 minutes for 24 hours in an Infinite M200 plate reader (TECAN IBERICA, Männedorf, Switzerland). The controls and the samples (containing concentrations of the compounds to be assayed of 0.5, 1 and 3 μM) were evaluated in the same assay in duplicate and each experiment was repeated three times. […]

T1 sequence (P20272 whole entry): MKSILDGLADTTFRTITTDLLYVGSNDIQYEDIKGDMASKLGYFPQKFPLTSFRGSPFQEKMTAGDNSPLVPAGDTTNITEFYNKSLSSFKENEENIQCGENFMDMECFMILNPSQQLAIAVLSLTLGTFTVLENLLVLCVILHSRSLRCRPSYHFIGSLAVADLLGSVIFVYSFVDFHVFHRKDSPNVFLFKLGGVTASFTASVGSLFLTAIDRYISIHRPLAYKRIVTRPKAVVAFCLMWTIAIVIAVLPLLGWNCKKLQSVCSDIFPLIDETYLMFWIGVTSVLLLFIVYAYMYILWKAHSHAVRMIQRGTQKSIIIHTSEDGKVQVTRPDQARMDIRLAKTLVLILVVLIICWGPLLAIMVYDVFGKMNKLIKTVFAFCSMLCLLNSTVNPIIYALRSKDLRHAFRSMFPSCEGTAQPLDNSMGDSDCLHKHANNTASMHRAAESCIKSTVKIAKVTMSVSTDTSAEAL

On to `CCCCCCCC/C=C\CCCCCCCCOCCc1ccc2c(c1)OCO2` [Example 2, (Z)-1-(2-(3,4-methylenedioxyphenyl)ethoxy)octadec-9-ene], for which, at CB1 receptor, the “CB1 Ki (M)” value is on record as “No affinity” and the “CB1 pKi” value is “No affinity”. Also, the “reduction of intake with respect to the control group” value (“reduction of intake” below) with male Wistar rats was “about 25%”.
As to `CCCCC/C=C\C/C=C\CCCCCCCCOCCc1ccc2c(c1)OCO2` [Example 5, (9Z,12Z)-1-(2-(3,4-methylenedioxyphenyl)ethoxy)-octadeca-9,12-diene], the Ki at CB1 receptor (read-out: CB1 Ki) came to 22.5 µM.
Regarding `CCCCCCCC/C=C\CCCCCCCCOCCc1ccccc1` [Example 3, (Z)-1-(2-phenylethoxy)octadec-9-ene], at CB1 receptor, the “CB1 Ki (M)” value is “No affinity” and the “CB1 pKi” value is on record as “No affinity”. For the same molecule, the “reduction of intake” value in the assay on male Wistar rats is recorded as “about 25%”.
Turning to `CCCCC/C=C\C/C=C\CCCCCCCCOCCc1ccc(O)c(O)c1` [Example 10, (9Z,12Z)-1-(2-(3,4-dihydroxyphenyl)ethoxy)-octadeca-9,12-diene], the Ki is 7.49 µM on CB1 receptor (read-out: CB1 Ki) and 7.59 µM at CB1 receptor (read-out: CB1 pKi (converted)). For the same molecule, the “LDL antioxidant activity (lag-time until formation of conjugated dienes)” value in the assay on LDL is on record as “activity similar to that of hydroxytyrosol at the three assayed concentrations”. The “reduction of intake” value in the assay with male Wistar rats is 50%.
